# Reference: ChEMBL document CHEMBL1126314, “A dideazatetrahydrofolate analogue lacking a chiral center at C-6, N-[4-[2-(2-amino-3,4-dihydro-4-oxo-7H-pyrrolo[2,3-d]pyrimidin-5-yl)ethyl]benzoyl]-L-glutamic acid, is an inhibitor of thymidylate synthase” (J Med Chem, 1992)
# Tests used:
# [1] = First-order rate constant of the compound; assay type: ADME
# Thymidylate synthase = Thymidylate synthase (Mus musculus, UniProt P07607); assay: Compound was evaluated for competitive inhibition of recombinant mouse thymidylate synthase
# [2] = First-order rate constant was determined; assay type: ADME
# CCRF-CEM = assay: Compound was evaluated for the half-maximal inhibition against human CCRF-CEM lymphoblastic leukemic cell growth; assay type: functional, cell-based
# L1210 = assay: Compound was evaluated for the half-maximal inhibition against mouse L1210 leukemic cell growth; assay type: functional, cell-based
# [3] = Km was determined; assay type: ADME
# Sequence of Thymidylate synthase (P07607 whole entry): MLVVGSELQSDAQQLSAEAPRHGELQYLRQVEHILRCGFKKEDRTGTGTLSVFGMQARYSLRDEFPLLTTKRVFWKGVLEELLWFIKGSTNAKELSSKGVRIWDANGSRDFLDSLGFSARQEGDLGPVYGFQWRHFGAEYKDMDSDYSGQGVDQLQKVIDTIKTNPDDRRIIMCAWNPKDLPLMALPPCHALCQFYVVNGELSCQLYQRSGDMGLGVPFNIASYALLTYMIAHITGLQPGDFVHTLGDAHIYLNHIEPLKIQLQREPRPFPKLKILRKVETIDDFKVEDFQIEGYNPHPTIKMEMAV
Compound,Rate constant [1],Ki (Thymidylate synthase) [nM],Rate constant [2],IC50 (CCRF-CEM) [nM],IC50 (L1210) [nM],Km [3] [µM]
Nc1nc(O)c2c(n1)NCC(CCc1ccc(C(=O)NC(CCC(=O)O)C(=O)O)cc1)C2 (centres undefined),32,30,–,–,–,–
Nc1nc(N)c2nc(CNc3ccc(C(=O)N[C@@H](CCC(=O)O)C(=O)O)cc3)cnc2n1 [AMINOPTERIN],–,–,10.1,–,–,–
CN(Cc1cnc2nc(N)nc(N)c2n1)c1ccc(C(=O)N[C@@H](CCC(=O)O)C(=O)O)cc1 [METHOTREXATE],0.9,–,–,–,–,–
Nc1nc2[nH]cc(CCc3ccc(C(=O)N[C@@H](CCC(=O)O)C(=O)O)cc3)c2c(=O)[nH]1 [PEMETREXED],400,340,–,16,22,0.8
